Source: patent publication US9499535B2, “Kinase inhibitors” (ORIGENIS GMBH, priority 2011, dated 2016)

Assays:
LRRK2 = LRRK2 (Homo sapiens, UniProt Q5S007); experiment: LRRK2 assay (LanthaScreen Eu Kinase Binding Assay); settings: 5 nM LRRK2, 10 nM tracer 236, RT 1 h; read-out: LRRK2 Activites: IC50
Source text: Binding of the tracer to the kinase is detected using a europium-labeled anti-tag antibody, which binds to the kinase of interest. […] Binding of an inhibitor to the kinase competes for binding with the tracer, resulting in a loss of FRET. The fluorescence intensity ratio is directly proportional to the amount of peptide phosphorylation.
The inhibitor concentration was plotted versus the emission ratio to determine the IC50 using XLFit 5.0 (IDBS, Guildford) to fit to a sigmoidal dose response curve with a variable slope.

SYK kinase = target: T1, SYK kinase (Homo sapiens, UniProt P43405); experiment: SYK assay (OMNIA Kinase Assay, Invitrogen); type: biochemical; settings: apparent Ki calculated from the IC50 using the Cheng-Prusoff equation; 1 mM ATP, 10 μM Peptide Substrate; read-out: SYK Activities: Ki
T1 construct: purchased Invitrogen, Carlsbad
Procedure, shortened: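 Continuous SOX-fluorescence (Omnia) readout of Tyr 7 peptide (10 μM) phosphorylation with 1 mM ATP and 0.2 mM DTT at 30° C, started by SYK addition. Fluorescence (λex 360/λem 485 nm) was read every 30 s for 30 min. IC50 from velocity vs concentration; apparent Ki via Cheng-Prusoff.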

Chain of LRRK2 (Q5S007 970-2527 limits assumed): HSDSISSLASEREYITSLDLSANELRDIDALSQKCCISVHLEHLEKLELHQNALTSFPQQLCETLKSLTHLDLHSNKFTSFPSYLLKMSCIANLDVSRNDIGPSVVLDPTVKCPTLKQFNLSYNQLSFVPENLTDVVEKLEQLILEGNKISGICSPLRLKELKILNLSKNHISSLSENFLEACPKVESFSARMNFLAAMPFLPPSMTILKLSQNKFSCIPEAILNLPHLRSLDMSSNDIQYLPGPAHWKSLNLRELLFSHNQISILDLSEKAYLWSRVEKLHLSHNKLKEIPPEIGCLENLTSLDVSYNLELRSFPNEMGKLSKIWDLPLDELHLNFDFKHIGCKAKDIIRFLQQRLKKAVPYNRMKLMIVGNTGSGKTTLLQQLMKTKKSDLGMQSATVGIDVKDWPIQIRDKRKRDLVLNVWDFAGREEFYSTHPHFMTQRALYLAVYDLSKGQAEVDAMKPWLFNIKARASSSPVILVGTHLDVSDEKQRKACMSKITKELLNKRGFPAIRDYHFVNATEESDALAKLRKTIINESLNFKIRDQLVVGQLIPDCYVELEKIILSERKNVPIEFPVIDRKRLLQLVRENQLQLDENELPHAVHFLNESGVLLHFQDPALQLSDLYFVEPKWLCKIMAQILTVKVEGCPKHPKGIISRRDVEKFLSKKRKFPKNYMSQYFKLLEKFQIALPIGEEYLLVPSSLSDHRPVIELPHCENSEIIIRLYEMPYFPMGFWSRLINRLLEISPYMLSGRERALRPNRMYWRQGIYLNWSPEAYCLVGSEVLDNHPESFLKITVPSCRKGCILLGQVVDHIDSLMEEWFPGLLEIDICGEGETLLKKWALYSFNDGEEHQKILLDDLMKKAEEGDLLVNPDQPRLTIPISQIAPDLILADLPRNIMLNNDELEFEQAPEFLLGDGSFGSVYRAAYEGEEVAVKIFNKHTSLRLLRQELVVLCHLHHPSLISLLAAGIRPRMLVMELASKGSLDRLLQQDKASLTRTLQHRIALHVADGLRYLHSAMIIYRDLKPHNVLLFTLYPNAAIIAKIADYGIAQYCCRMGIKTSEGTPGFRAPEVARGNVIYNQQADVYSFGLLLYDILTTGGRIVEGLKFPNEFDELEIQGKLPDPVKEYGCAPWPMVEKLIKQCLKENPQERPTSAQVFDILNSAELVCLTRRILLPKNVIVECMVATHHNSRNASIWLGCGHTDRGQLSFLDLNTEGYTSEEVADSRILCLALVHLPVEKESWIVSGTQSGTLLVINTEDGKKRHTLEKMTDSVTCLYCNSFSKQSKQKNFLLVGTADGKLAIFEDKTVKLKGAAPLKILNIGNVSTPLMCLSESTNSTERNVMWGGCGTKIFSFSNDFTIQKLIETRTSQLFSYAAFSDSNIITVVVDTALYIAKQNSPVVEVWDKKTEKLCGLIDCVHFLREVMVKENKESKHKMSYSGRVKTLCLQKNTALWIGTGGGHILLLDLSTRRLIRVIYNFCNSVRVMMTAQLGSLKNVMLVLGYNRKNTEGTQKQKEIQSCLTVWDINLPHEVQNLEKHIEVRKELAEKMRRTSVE

Compound	IC50 (LRRK2) [nM]	Ki (SYK kinase) [nM]
COc1cccc2c1nc(Nc1ccc3c(c1)NCCO3)c1n[nH]cc12 [Example #168, (3,4-Dihydro-2H-benzo[1,4]oxazin-6-yl)-(6-methoxy-2H-pyrazolo[3,4-c]quinolin-4-yl)-amine]	100 to 1000	10 to 100
COc1cccc2c1nc(Nc1ccc(N3CCOCC3)cc1)c1[nH]ncc12 [Example #170, (6-Methoxy-2H-pyrazolo[3,4-c]quinolin-4-yl)-(4-morpholin-4-yl-phenyl)-amine]	100 to 1000	10 to 100
COc1ccc2c(c1)nc(Nc1ccc3c(c1)NCCO3)c1n[nH]cc12 [Example #173, (3,4-Dihydro-2H-benzo[1,4]oxazin-6-yl)-(7-methoxy-2H-pyrazolo[3,4-c]quinolin-4-yl)-amine]	100 to 1000	10 to 100
COc1ccc2c(c1)nc(Nc1ccc(OC)c(OC)c1)c1n[nH]cc12 [Example #175, (3,4-Dimethoxy-phenyl)-(7-methoxy-2H-pyrazolo[3,4-c]quinolin-4-yl)-amine]	100 to 1000	10 to 100
COc1ccc2c(c1)nc(Nc1ccc(N3CCOCC3)cc1)c1n[nH]cc12 [Example #177, (7-Methoxy-2H-pyrazolo[3,4-c]quinolin-4-yl)-(4-morpholin-4-yl-phenyl)-amine]	100 to 1000	< 10
COc1ccc2nc(Nc3ccc(N4CCOCC4)c(F)c3)c3n[nH]cc3c2c1 [Example #181, (3-Fluoro-4-morpholin-4-yl-phenyl)-(8-methoxy-2H-pyrazolo[3,4-c]quinolin-4-yl)-amine]	100 to 1000	10 to 100
COc1ccc2nc(Nc3ccc4c(c3)n(C)c(=O)n4C)c3n[nH]cc3c2c1 [Example #189, 5-(8-Methoxy-2H-pyrazolo[3,4-c]quinolin-4-ylamino)-1,3-dimethyl-1,3-dihydro-benzoimidazol-2-one]	100 to 1000	10 to 100
COc1ccc2nc(Nc3ccc4c(c3)NCCC4)c3n[nH]cc3c2c1 [Example #196, (8-Methoxy-2H-pyrazolo[3,4-c]quinolin-4-yl)-(1,2,3,4-tetrahydro-quinolin-7-yl)-amine]	100 to 1000	10 to 100
COc1cccc2nc(Nc3ccc4c(c3)NCCO4)c3n[nH]cc3c12 [Example #198, (3,4-Dihydro-2H-benzo[1,4]oxazin-6-yl)-(9-methoxy-2H-pyrazolo[3,4-c]quinolin-4-yl)-amine]	10 to 100	100 to 1000
COc1ccc(Nc2nc3cccc(OC)c3c3c[nH]nc23)cc1OC [Example #200, (3,4-Dimethoxy-phenyl)-(9-methoxy-2H-pyrazolo[3,4-c]quinolin-4-yl)-amine]	100 to 1000	100 to 1000
COc1ccc(Nc2nc3ccccc3c3c(C)[nH]nc23)cc1OC [Example #207, (3,4-Dimethoxy-phenyl)-(1-methyl-2H-pyrazolo[3,4-c]quinolin-4-yl)-amine]	100 to 1000	10 to 100
COc1ccc(Nc2nc3ccc(C#N)cc3c3c[nH]nc23)cc1OC [Example #216, 4-(3,4-Dimethoxy-phenylamino)-2H-pyrazolo[3,4-c]quinoline-8-carbonitrile]	100 to 1000	10 to 100
COc1ccc2nc(Nc3ccc4c(c3)OCC(=O)N4)c3[nH]ncc3c2c1 [Example #224, 7-(8-Methoxy-3H-pyrazolo[3,4-c]quinolin-4-ylamino)-4H-benzo[1,4]oxazin-3-one]	100 to 1000	10 to 100
COc1ccc2nc(Nc3ccc(C)cc3)c3n[nH]cc3c2c1 [Example #244, (8-Methoxy-2H-pyrazolo[3,4-c]quinolin-4-yl)-p-tolyl-amine]	100 to 1000	10 to 100
COc1cccc2c1nc(Nc1ccc(N3CCSCC3)cc1)c1n[nH]cc12 [Example #247, (6-Methoxy-2H-pyrazolo[3,4-c]quinolin-4-yl)-(4-thiomorpholin-4-yl-phenyl)-amine]	100 to 1000	10 to 100
COc1cccc2c1nc(Nc1ccc3c(c1)NC(=O)CO3)c1n[nH]cc12 [Example #250, 6-((6-methoxy-2H-pyrazolo[3,4-c]quinolin-4-yl)amino)-2H-benzo[b][1,4]oxazin-3(4H)-one]	100 to 1000	10 to 100
COc1ccc2c(c1)nc(Nc1ccc3[nH]ncc3c1)c1n[nH]cc12 [Example #256, (1H-Indazol-5-yl)-(7-methoxy-2H-pyrazolo[3,4-c]quinolin-4-yl)-amine]	100 to 1000	10 to 100
COc1cccc2c1nc(Nc1ccc(C)cc1)c1n[nH]cc12 [Example #274, (6-Methoxy-2H-pyrazolo[3,4-c]quinolin-4-yl)-p-tolyl-amine]	100 to 1000	10 to 100
COc1ccc2nc(Nc3ccc(OCC(=O)O)c(OC)c3)c3n[nH]cc3c2c1 [Example #279, 2-(2-methoxy-4-((8-methoxy-2H-pyrazolo[3,4-c]quinolin-4-yl)amino)phenoxy)acetic-acid]	100 to 1000	100 to 1000
COc1ccc2nc(Nc3ccc(CC(=O)O)cc3)c3n[nH]cc3c2c1 [Example #285, 2-(4-((8-methoxy-2H-pyrazolo[3,4-c]quinolin-4-yl)amino)phenyl)acetic acid]	100 to 1000	100 to 1000
COc1ccc2nc(Nc3ccc(N4CCSCC4)cc3)c3[nH]ncc3c2c1 [Example #293, 8-methoxy-N-(4-thiomorpholinophenyl)-2H-pyrazolo[3,4-c]quinolin-4-amine]	10 to 100	< 10

The remaining lines, values ahead:

IC50 (LRRK2) [nM]	Ki (SYK kinase) [nM]	Compound
< 10	10 to 100	COc1ccc2nc(Nc3ccc(C(=O)N4CCC4)cc3)c3n[nH]cc3c2c1 [Example #302, azetidin-1-yl(4-((8-methoxy-2H-pyrazolo[3,4-c]quinolin-4-yl)amino)phenyl)methanone]
100 to 1000	10 to 100	COc1ccc2nc(Nc3ccc(F)cc3)c3n[nH]cc3c2c1 [Example #310, N-(4-fluorophenyl)-8-methoxy-2H-pyrazolo[3,4-c]quinolin-4-amine]
100 to 1000	100 to 1000	COc1ccc2nc(Nc3ccc(NC(=O)C(F)(F)F)cc3)c3n[nH]cc3c2c1 [Example #312, 2,2,2-trifluoro-N-(4-((8-methoxy-2H-pyrazolo[3,4-c]quinolin-4-yl)amino)phenyl)acetamide]
10 to 100	10 to 100	COc1ccc2nc(Nc3ccc4c(c3)N=C(NCCCO)CO4)c3n[nH]cc3c2c1 [Example #313, 3-((6-((8-methoxy-2H-pyrazolo[3,4-c]quinolin-4-yl)amino)-2H-benzo[b][1,4]oxazin-3-yl)amino)propan-1-ol]
10 to 100	10 to 100	COc1ccc2nc(Nc3ccc4c(c3)N=C(NCCc3ccccc3)CO4)c3n[nH]cc3c2c1 [Example #314, N6-(8-methoxy-2H-pyrazolo[3,4-c]quinolin-4-yl)-N3-phenethyl-2H-benzo[b][1,4]oxazine-3,6-diamine]
100 to 1000	10 to 100	COc1ccc2nc(Nc3cc(F)c(F)c(F)c3)c3n[nH]cc3c2c1 [Example #317, 8-methoxy-N-(3,4,5-trifluorophenyl)-2H-pyrazolo[3,4-c]quinolin-4-amine]
100 to 1000	10 to 100	COc1ccc2nc(Nc3ccc(N4CCOCC4)c(OC)c3)c3n[nH]cc3c2c1 [Example #319, 8-methoxy-N-(3-methoxy-4-morpholinophenyl)-2H-pyrazolo[3,4-c]quinolin-4-amine]
100 to 1000	100 to 1000	COc1ccc2nc(Nc3ccc(C(O)(C(F)(F)F)C(F)(F)F)cc3)c3n[nH]cc3c2c1 [Example #321, 1,1,1,3,3,3-hexafluoro-2-(4-((8-methoxy-2H-pyrazolo[3,4-c]quinolin-4-yl)amino)phenyl)propan-2-ol]
100 to 1000	10 to 100	Fc1ccc2nc(Nc3ccc(N4CCOCC4)cc3)c3[nH]ncc3c2c1 [Example #325, 8-fluoro-N-(4-morpholinophenyl)-3H-pyrazolo[3,4-c]quinolin-4-amine]
100 to 1000	100 to 1000	COc1ccc2nc(Nc3ccc(OC(F)F)c(OC)c3)c3n[nH]cc3c2c1 [Example #328, N-(4-(difluoromethoxy)-3-methoxyphenyl)-8-methoxy-2H-pyrazolo[3,4-c]quinolin-4-amine]
100 to 1000	10 to 100	COc1ccc2nc(Nc3ccc(S(=O)(=O)N(C)C)cc3)c3n[nH]cc3c2c1 [Example #343, 4-((8-methoxy-2H-pyrazolo[3,4-c]quinolin-4-yl)amino)-N,N-dimethylbenzenesulfonamide]
10 to 100	10 to 100	COc1ccc2nc(Nc3cccc(S(=O)(=O)NC4CC4)c3)c3n[nH]cc3c2c1 [Example #344, N-cyclopropyl-3-((8-methoxy-2H-pyrazolo[3,4-c]quinolin-4-yl)amino)benzenesulfonamide]
100 to 1000	100 to 1000	COc1ccc2nc(Nc3cccc(S(=O)(=O)CCO)c3)c3n[nH]cc3c2c1 [Example #351, 2-((3-((8-methoxy-2H-pyrazolo[3,4-c]quinolin-4-yl)amino)phenyl)sulfonyl)ethan-1-ol]
100 to 1000	10 to 100	Ic1ccc2nc(Nc3ccc(N4CCOCC4)cc3)c3[nH]ncc3c2c1 [Example #355, 8-iodo-N-(4-morpholinophenyl)-3H-pyrazolo[3,4-c]quinolin-4-amine]
100 to 1000	100 to 1000	O=C(c1ccc(Nc2nc3ccc(I)cc3c3cn[nH]c23)cc1)N1CCCC1 [Example #356, (4-((8-iodo-3H-pyrazolo[3,4-c]quinolin-4-yl)amino)phenyl)(pyrrolidin-1-yl)methanone]
